Source: patent US8530490B2, “Uracil compound or salt thereof having human deoxyuridine triphosphatase inhibitory activity” (Taiho Pharmaceutical Co., Ltd., priority 2008, dated 2013)

Each compound was assayed against human dUTPase (Homo sapiens (Human), UniProt P33316) (assay: Human dUTPase inhibitory effect: production of [5-3H]dUMP from [5-3H]dUTP, measured by HPLC with flow scintillation). Details: [5-3H]dUMP production from [5-3H]dUTP, 37° C., 15 minutes.
Format: biochemical
In short: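 E. coli-expressed purified human dUTPase reacted with 1 μM dUTP stock containing [5-3H]dUTP in Tris pH 7.4, MgCl2, 2-mercaptoethanol and albumin, 15 min at 37° C; stopped by 1 min at 100° C. [5-3H]dUMP formed was separated by reversed-phase ion-pair HPLC and quantified by flow scintillation versus water control.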

human dUTPase, sequence (P33316 94-252): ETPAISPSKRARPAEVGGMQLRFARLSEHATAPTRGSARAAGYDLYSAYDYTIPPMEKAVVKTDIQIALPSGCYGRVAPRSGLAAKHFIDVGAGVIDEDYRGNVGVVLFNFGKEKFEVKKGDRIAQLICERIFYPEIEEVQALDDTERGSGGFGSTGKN

IC50 [µM]	SMILES
0.24	CC(C)(CCCOCn1ccc(=O)[nH]c1=O)NS(=O)(=O)c1cccc(OC2CCCC2)c1 [Example 161, 3-(cyclopentyloxy)-N-(5-((2,4-dioxo-3,4-dihydropyrimidin-1(2H)-yl)methoxy)-2-methylpentan-2-yl)benzenesulfonamide]
3.96	C/C=C\c1cccc(S(=O)(=O)NC(C)(C)CCCOCn2ccc(=O)[nH]c2=O)c1 [Example 162, (Z)—N-(5-((2,4-dioxo-3,4-dihydropyrimidin-1(2H)-yl)methoxy)-2-methylpentan-2-yl)-3-(prop-1-enyl)benzenesulfonamide]
6.02	O=c1ccn(COCCCC2(NS(=O)(=O)c3ccccc3)CC2)c(=O)[nH]1 [Example 164, N-(1-(3-((2,4-dioxo-3,4-dihydropyrimidin-1(2H)-yl)methoxy)propyl)cyclopropyl)benzenesulfonamide]
1.86	COc1cccc(S(=O)(=O)NC2(CCCOCn3ccc(=O)[nH]c3=O)CC2)c1 [Example 165, N-(1-(3-((2,4-dioxo-3,4-dihydropyrimidin-1(2H)-yl)methoxy)propyl)cyclopropyl)-3-methoxybenzenesulfonamide]
0.64	O=c1ccn(COCCCCNS(=O)(=O)c2cccc(OCC3CC3)c2)c(=O)[nH]1 [Example 166, 3-(cyclopropylmethoxy)-N-(4-((2,4-dioxo-3,4-dihydropyrimidin-1(2H)-yl)methoxy)butyl)benzenesulfonamide]
0.13	O=c1ccn(COCCCC2(NS(=O)(=O)c3cccc(OCC4CC4)c3)CC2)c(=O)[nH]1 [Example 167, 3-(cyclopropylmethoxy)-N-(1-(3-((2,4-dioxo-3,4-dihydropyrimidin-1(2H)-yl)methoxy)propyl)cyclopropyl)benzenesulfonamide]
2.57	COc1cccc(S(=O)(=O)NC(C)(C)c2ccc(Cn3ccc(=O)[nH]c3=O)cc2)c1 [Example 177, N-(2-(4-((2,4-dioxo-3,4-dihydropyrimidin-1(2H)-yl)methyl)phenyl)propan-2-yl)-3-methoxybenzenesulfonamide]
0.24	CC(C)(NS(=O)(=O)c1cccc(OCC2CC2)c1)c1ccc(Cn2ccc(=O)[nH]c2=O)cc1 [Example 178, 3-(cyclopropanemethoxy)-N-(2-(4-((2,4-dioxo-3,4-dihydropyrimidin-1(2H)-yl)methyl)phenyl)propan-2-yl)benzenesulfonamide]
0.11	CC(C)(NS(=O)(=O)c1cccc(OCC2CC2)c1)c1ccc(Cn2ccc(=O)[nH]c2=O)nc1 [Example 179, 3-(cyclopropanemethoxy)-N-(2-(6-((2,4-dioxo-3,4-dihydropyrimidin-1(2H)-yl)methyl)pyridin-3-yl)propan-2-yl)benzenesulfonamide]

Continued, compound first:

SMILES	IC50 [µM]
CC(C)(CCCOCn1ccc(=O)[nH]c1=O)NS(=O)(=O)c1cccc(OC(F)F)c1 [Example 145, 3-(difluoromethoxy)-N-(5-((2,4-dioxo-3,4-dihydropyrimidin-1(2H)-yl)methoxy)-2-methylpentan-2-yl)benzenesulfonamide]	6.29
CC(C)(CCCOCn1ccc(=O)[nH]c1=O)NS(=O)(=O)c1cccc(OC(=O)c2ccccc2)c1 [Example 146, 3-(N-(5-((2,4-dioxo-3,4-dihydropyrimidin-1(2H)-yl)methoxy)-2-methylpentan-2-yl)sulfamoyl)phenylbenzoate]	8.68
CN(C)c1cccc2c(S(=O)(=O)NC(C)(C)CCCOCn3ccc(=O)[nH]c3=O)cccc12 [Example 147, 5-(dimethylamino)-N-(5-((2,4-dioxo-3,4-dihydropyrimidin-1(2H)-yl)methoxy)-2-methylpentan-2-yl)naphthalene-1-sulfonamide]	9.5
CC(C)(CCCOCn1ccc(=O)[nH]c1=O)NS(=O)(=O)c1cccc(Cl)c1 [Example 148, 3-chloro-N-(5-((2,4-dioxo-3,4-dihydropyrimidin-1(2H)-yl)methoxy)-2-methylpentan-2-yl)benzenesulfonamide]	2.77
CC(C)(CCCOCn1ccc(=O)[nH]c1=O)NS(=O)(=O)c1cc(Br)c(Br)s1 [Example 149, 4,5-dibromo-N-(5-((2,4-dioxo-3,4-dihydropyrimidin-1(2H)-yl)methoxy)-2-methylpentan-2-yl)thiophene-2-sulfonamide]	7.65
CC(C)(CCCOCn1ccc(=O)[nH]c1=O)NS(=O)(=O)c1cccc(F)c1 [Example 150, N-(5-((2,4-dioxo-3,4-dihydropyrimidin-1(2H)-yl)methoxy)-2-methylpentan-2-yl)-3-fluorobenzenesulfonamide]	5.67
Cc1ccccc1S(=O)(=O)NC(C)(C)CCCOCn1ccc(=O)[nH]c1=O [Example 151, N-(5-((2,4-dioxo-3,4-dihydropyrimidin-1(2H)-yl)methoxy)-2-methylpentan-2-yl)-2-methylbenzenesulfonamide]	5.7
Cc1cccc(S(=O)(=O)NC(C)(C)CCCOCn2ccc(=O)[nH]c2=O)c1 [Example 154, N-(5-((2,4-dioxo-3,4-dihydropyrimidin-1(2H)-yl)methoxy)-2-methylpentan-2-yl)-3-methylbenzenesulfonamide]	8.82
CC(C)(CCCOCn1ccc(=O)[nH]c1=O)NS(=O)(=O)c1ccccc1Br [Example 156, 2-bromo-N-(5-((2,4-dioxo-3,4-dihydropyrimidin-1(2H)-yl)methoxy)-2-methylpentan-2-yl)benzenesulfonamide]	8.94
CC(C)(CCCOCn1ccc(=O)[nH]c1=O)NS(=O)(=O)c1ccccc1 [Example 158, N-(5-((2,4-dioxo-3,4-dihydropyrimidin-1(2H)-yl)methoxy)-2-methylpentan-2-yl)benzenesulfonamide]	9.48
CC(C)(CCCOCn1ccc(=O)[nH]c1=O)NS(=O)(=O)c1cccc(OCC2CC2)c1 [Example 159, 3-(cyclopropylmethoxy)-N-(5-((2,4-dioxo-3,4-dihydropyrimidin-1(2H)-yl)methoxy)-2-methylpentan-2-yl)benzenesulfonamide]	0.26
CC(C)(CCCOCn1ccc(=O)[nH]c1=O)NS(=O)(=O)c1cccc(OCC(F)F)c1 [Example 160, 3-(2,2-difluoroethoxy)-N-(5-((2,4-dioxo-3,4-dihydropyrimidin-1(2H)-yl)methoxy)-2-methylpentan-2-yl)benzenesulfonamide]	0.14
CC(C)(NS(=O)(=O)c1ccccc1)c1ccc(Cn2ccc(=O)[nH]c2=O)cc1 [Example 176, N-(2-(4-((2,4-dioxo-3,4-dihydropyrimidin-1(2H)-yl)methyl)phenyl)propan-2-yl)benzenesulfonamide]	2.69
